Reference: patent US20230241063A1, “METHODS OF TREATING PROSTATE CANCER” (Celgene Quanticel Research, Inc., priority 2020, published 2023)
Entries after “also recorded” stand apart in the source; their conditions may differ.

Columns and labels:
PC3 cells = assay: Proliferation assay (Cell Titer-Glo) in PC3 cells; assay type: cell-based, human; conditions: single agent, 3 days, CellTiter Glo
[1] = tested on: LNCaP-AR CRISPRi TP53/RB1 cells; assay: Proliferation assay (Cell Titer-Glo) in LNCaP-AR CRISPRi TP53/RB1 cells; assay type: cell-based, human; conditions: single agents, 6 days, LNCaP_AR guideTP53/RB1 cells
TKO cells = assay: Proliferation assay (Cell Titer-Glo) in TKO cells; assay type: cell-based, mouse; conditions: Compound A alone
DKO cells = assay: Proliferation assay (Cell Titer-Glo) in DKO cells; assay type: cell-based, mouse; conditions: Compound A alone
Krt8 [2] = assay: Krt8 gene expression by qPCR in DKO cells; assay type: cell-based, mouse; conditions: 8 days, enzalutamide 10 uM in the combination
Krt8 [3] = assay: Krt8 gene expression by qPCR in TKO cells; assay type: cell-based, mouse; conditions: single agent, 8 days
LNCaP-AR cells = assay: Proliferation assay (Cell Titer-Glo) in LNCaP-AR cells; assay type: cell-based, human; conditions: single agent, 3 days
VCaP cells = assay: Proliferation assay (Cell Titer-Glo) in VCaP cells; assay type: cell-based, human; conditions: 3 days; enzalutamide 10 uM in the combination
LNCaP cells = assay: Proliferation assay (Cell Titer-Glo) in LNCaP cells; assay type: cell-based, human; conditions: single agent, 6 days

Compound	effect on cell proliferation of PC3 cells (PC3 cells)	effect on proliferation [1]	effect on TKO cell proliferation (TKO cells)	effect on DKO cell proliferation (DKO cells)	induction of Keratin8 (Krt8) expression (Krt8 [2]) [fold]	concentration of Compound A able to induce the expression of Krt8 (Krt8 [3]) [µM]	effect on cell proliferation (LNCaP-AR cells)	effect on proliferation of VCaP cells (VCaP cells)	effect on proliferation of LNCaP cells (LNCaP cells)	effect on proliferation ([1]; listed as ENZA)
COc1ccc(-c2c(-c3ccc(C#N)c(F)c3)nc(N3CCC(N)CC3)n(C)c2=O)cc1F [Compound A, 4-[2-(4-amino-piperidin-1-yl)-5-(3-fluoro-4-methoxy-phenyl)-1-methyl-6-oxo-1,6-dihydro-pyrimidin-4-yl]-2-fluoro-benzonitrile]	did not affect cell proliferation; also recorded: does not affect cell proliferation	do not affect proliferation; also recorded: did not affect proliferation	mild effect	mild effect	1.5	≥ 1	no effect on cell proliferation	no effect on proliferation; also recorded: did not affect proliferation	no effect on proliferation; also recorded: did not affect proliferation	
CNC(=O)c1ccc(N2C(=S)N(c3ccc(C#N)c(C(F)(F)F)c3)C(=O)C2(C)C)cc1F [enzalutamide, 4-{3-[4-cyano-3-(trifluoromethyl)phenyl]-5,5-dimethyl-4-oxo-2-sulfanylideneimidazolidin-1-yl}-2-fluoro-N-methylbenzamide, reference compound]	resistant	do not affect proliferation								did not affect proliferation
